The values below come from patent publication US20250228831A1, “METHOD TO PREVENT AND TREAT GLAUCOMA BY CALCIUM CHANNEL BLOCKERS, ANGIOTENSIN CONVERTING ENZYME INHIBITORS, AND ANGIOTENSIN RECEPTOR BLOCKERS” (priority 2022, published 2025).

Assay type in all cases: in vivo, human
Assay [1] has as its system glaucoma. The assay is described as follows: Prevention of recurrence in a patient successfully treated for glaucoma, one eye treated and the other left untreated. The following applies: untreated eye shows signs of recurrence. From the text:
A composition comprising the ACE inhibitor enalapril is directly applied to the vitreous surface of one eye while the other eye is left untreated.
A composition comprising the angiotensin receptor blocker losartan is directly applied to the vitreous surface of one eye while the other eye is left untreated.
A composition comprising the ACE inhibitor enalapril is applied to the eye by intravitreal or intraocular injection while the other eye is left untreated.
A composition comprising the angiotensin receptor blocker losartan is applied to the eye by intravitreal or intraocular injection while the other eye is left untreated.

The test system of assay [2] is glaucoma. Description: Treatment of a patient diagnosed with glaucoma, one eye treated and the other left untreated.
From the text: (§1) A patient is diagnosed with glaucoma.
A patient is diagnosed with glaucoma. A composition comprising the ACE inhibitor enalapril is directly applied to the vitreous surface of one eye while the other eye is left untreated.
A patient is diagnosed with glaucoma. A composition comprising the angiotensin receptor blocker losartan is directly applied to the vitreous surface of one eye while the other eye is left untreated.
as §1
A patient is diagnosed with glaucoma. A composition comprising the ACE inhibitor enalapril is applied to the eye by intravitreal or intraocular injection while the other eye is left untreated.
A patient is diagnosed with glaucoma. A composition comprising the angiotensin receptor blocker losartan is applied to the eye by intravitreal or intraocular injection while the other eye is left untreated.

Assay [3] has as its system primary form of glaucoma. Description: Ramiprilat formulation given to the eye of a patient with a primary form of glaucoma. The procedure: In this example, a patient with a primary form of glaucoma is administered a topical formulation comprising ramiprilat to the eye. […] The patient's primary form of glaucoma is therefore treated by the […] formulation.
In this example, a patient with a primary form of glaucoma is administered an injectable formulation comprising ramiprilat to the posterior chamber of the eye. […] The patient's primary form of glaucoma is therefore treated by the […] formulation.

[4] abbreviates: composition applied by intravitreal or intraocular injection.
The mark [5] stands for this setting: composition directly applied to the vitreous surface of one eye.
The mark [6] stands for this setting: injectable formulation to the posterior chamber of the eye.

Regarding `CCOC(=O)[C@H](CCc1ccccc1)N[C@@H](C)C(=O)N1CCC[C@H]1C(=O)O` [enalapril], the “recurrence of glaucoma, treated eye versus untreated eye” value in assay [1] (setting [4]) and in assay [1] (setting [5]) was “not develop glaucoma” each time. The “symptoms of glaucoma, treated eye versus untreated eye” value in assay [2] (setting [4]) and in assay [2] (setting [5]) was “reduced symptoms of glaucoma” throughout.

For the compound `CCCCc1nc(Cl)c(CO)n1Cc1ccc(-c2ccccc2-c2nn[nH]n2)cc1` [losartan], the “recurrence of glaucoma, treated eye versus untreated eye” value in assay [1] (setting [4]) and in assay [1] (setting [5]) was “not develop glaucoma” in each case. Moreover, the “symptoms of glaucoma, treated eye versus untreated eye” value in assay [2] (setting [4]) and in assay [2] (setting [5]) was “reduced symptoms of glaucoma” in each case.

Turning to Ramiprilat, in assay [3] (setting [6]), the “capillary networks and capillary blood supply to the eye” value was “grows capillary networks and increases the capillary blood supply”; the intraocular pressure result was “reduction in intraocular pressure”; the optic nerve result is reported as “repair to the optic nerve”. Further, in assay [3] (topical formulation to the eye), the “capillary networks and capillary blood supply to the eye” value is “grows capillary networks and increases the capillary blood supply”; the intraocular pressure entry is “reduction in intraocular pressure”; the optic nerve result is on record as “repair to the optic nerve”.
